From patent publication US6376518B1, “Acyl derivatives of 4-demethylpenclomedine, use thereof and preparation thereof” (Southern Research Institute, priority 1999, dated 2002)
Where two headings read alike, the source gives them in different places.

Key:
P388/BCNU leukemia = experiment: Antitumor activity against IP-implanted P388/BCNU leukemia in mice; conditions: P388/BCNU, Q1D × 5 (1); for MEDIAN DAY OF DEATH: dying mice only
[1] = tumor-bearing rats, 14C-penclomedine; cited from earlier work
human MX-1 mammary tumor = experiment: In vivo antitumor activity vs i.c.-implanted human MX-1 mammary tumor xenograft in athymic mice; conditions: ic MX-1; optimal doses (LD10 or less), schedule QD1-5, administered LP.
P388/L-PAM leukemia = conditions: for 50-DAY SURV/TOTAL / % ILS / APPROX. NET LOG10 CHANGE IN TUMOR BURDEN AT END OF Rx / MEDIAN DAY OF DEATH: P388/L-PAM, Q1D × 5 (1); for MEDIAN DAY OF DEATH: dying mice only
P388/0 leukemia = conditions: P388/0, Q1D × 5 (1); for MEDIAN DAY OF DEATH: dying mice only
P388/CPA leukemia = experiment: Antitumor activity against IP-implanted P388/CPA leukemia in mice; assay type: in vivo, murine; conditions: P388/CPA, Q1D × 5 (1)
patients = patients with advanced solid tumors; one hour infusion for 5 consecutive days; cited from earlier work

In the case of `COc1nc(C(Cl)(Cl)Cl)c(Cl)c(OC)c1Cl` [PEN, 3,5-dichloro-2,4-dimethoxy-6-(trichloromethyl)pyridine], the “50-DAY SURV/TOTAL” value (P388/BCNU leukemia; IP 60.0 mg/kg/dose) is reported as 0/6, the “% ILS” value (P388/BCNU leukemia; IP 60.0 mg/kg/dose) is reported as −6% and the “APPROX. NET LOG10 CHANGE IN TUMOR BURDEN AT END OF Rx” value (P388/BCNU leukemia; IP 60.0 mg/kg/dose) is reported as “+1.8”. The “MEDIAN DAY OF DEATH” value (P388/BCNU leukemia; IP 60.0 mg/kg/dose) was 8.5, the “50-DAY SURV/TOTAL” value (P388/BCNU leukemia; IP 90.0 mg/kg/dose) was 0/6 and the “% ILS” value (P388/BCNU leukemia; IP 90.0 mg/kg/dose) was 0%. The “APPROX. NET LOG10 CHANGE IN TUMOR BURDEN AT END OF Rx” value (P388/BCNU leukemia; IP 90.0 mg/kg/dose) was “+1.7”, the “MEDIAN DAY OF DEATH” value (P388/BCNU leukemia; IP 90.0 mg/kg/dose) was 9.0 and the “50-DAY SURV/TOTAL” value (P388/BCNU leukemia; IP 135.0 mg/kg/dose) was 0/6. The “% ILS” value (P388/BCNU leukemia; IP 135.0 mg/kg/dose) was “+27%”, the “APPROX. NET LOG10 CHANGE IN TUMOR BURDEN AT END OF Rx” value (P388/BCNU leukemia; IP 135.0 mg/kg/dose) was “+1.2” and the “predominant radioactive species in the brain” value [1] was “predominant radioactive species in the brain was penclomedine”. For the same molecule, the “Median % ILS (based on dying mice only)” value (human MX-1 mammary tumor) was 88%, the Survivors (human MX-1 mammary tumor) was 0/5 and the “50-DAY SURV/TOTAL” value (P388/L-PAM leukemia; IP 60.0 mg/kg/dose) was 0/6. The “% ILS” value (P388/L-PAM leukemia; IP 60.0 mg/kg/dose) was 0%, the “APPROX. NET LOG10 CHANGE IN TUMOR BURDEN AT END OF Rx” value (P388/L-PAM leukemia; IP 60.0 mg/kg/dose) was “+1.4” and the “MEDIAN DAY OF DEATH” value (P388/L-PAM leukemia; IP 60.0 mg/kg/dose) was 14.0. The “50-DAY SURV/TOTAL” value (P388/L-PAM leukemia; IP 90.0 mg/kg/dose) was 0/6, the “% ILS” value (P388/L-PAM leukemia; IP 90.0 mg/kg/dose) was −8% and the “APPROX. NET LOG10 CHANGE IN TUMOR BURDEN AT END OF Rx” value (P388/L-PAM leukemia; IP 90.0 mg/kg/dose) was “+1.6”. The “MEDIAN DAY OF DEATH” value (P388/L-PAM leukemia; IP 90.0 mg/kg/dose) was 13.0, the “50-DAY SURV/TOTAL” value (P388/L-PAM leukemia; IP 135.0 mg/kg/dose) was 0/6 and the “% ILS” value (P388/L-PAM leukemia; IP 135.0 mg/kg/dose) was −8%. For the same molecule, the “APPROX. NET LOG10 CHANGE IN TUMOR BURDEN AT END OF Rx” value (P388/L-PAM leukemia; IP 135.0 mg/kg/dose) was “+1.6”, the “MEDIAN DAY OF DEATH” value (P388/L-PAM leukemia; IP 135.0 mg/kg/dose) was 13.0 and the “activity in the P388/L-PAM tumor model (in words)” value (P388/L-PAM leukemia; mouse, in vivo) was “none of the three showed significant activity”. For the same molecule, the “50-DAY SURV/TOTAL” value (P388/0 leukemia; IP 60.0 mg/kg/dose) was 0/6, the “% ILS” value (P388/0 leukemia; IP 60.0 mg/kg/dose) was “+31%” and the “APPROX. NET LOG10 CHANGE IN TUMOR BURDEN AT END OF Rx” value (P388/0 leukemia; IP 60.0 mg/kg/dose) was “+0.4”. The “50-DAY SURV/TOTAL” value (P388/0 leukemia; IP 90.0 mg/kg/dose) was 0/6, the “% ILS” value (P388/0 leukemia; IP 90.0 mg/kg/dose) was “+45%” and the “APPROX. NET LOG10 CHANGE IN TUMOR BURDEN AT END OF Rx” value (P388/0 leukemia; IP 90.0 mg/kg/dose) was −0.8. For the same molecule, the “MEDIAN DAY OF DEATH” value (P388/0 leukemia; IP 90.0 mg/kg/dose) was 18.0, the “50-DAY SURV/TOTAL” value (P388/0 leukemia; IP 135.0 mg/kg/dose) was 0/6 and the “% ILS” value (P388/0 leukemia; IP 135.0 mg/kg/dose) was “+90%”. The “APPROX. NET LOG10 CHANGE IN TUMOR BURDEN AT END OF Rx” value (P388/0 leukemia; IP 135.0 mg/kg/dose) was −4.8, the “MEDIAN DAY OF DEATH” value (P388/0 leukemia; IP 135.0 mg/kg/dose) was 21.0 and the “50-DAY SURV/TOTAL” value (P388/CPA leukemia; IP 60.0 mg/kg/dose) was 0/6. For the same molecule, the “% ILS” value (P388/CPA leukemia; IP 60.0 mg/kg/dose) was −5%, the “APPROX. NET LOG10 CHANGE IN TUMOR BURDEN AT END OF Rx” value (P388/CPA leukemia; IP 60.0 mg/kg/dose) was “+1.7” and the “50-DAY SURV/TOTAL” value (P388/CPA leukemia; IP 90.0 mg/kg/dose) was 0/6. The “% ILS” value (P388/CPA leukemia; IP 90.0 mg/kg/dose) was −5%, the “APPROX. NET LOG10 CHANGE IN TUMOR BURDEN AT END OF Rx” value (P388/CPA leukemia; IP 90.0 mg/kg/dose) was “+1.7” and the “50-DAY SURV/TOTAL” value (P388/CPA leukemia; IP 135.0 mg/kg/dose) was 0/6. For the same molecule, the “% ILS” value (P388/CPA leukemia; IP 135.0 mg/kg/dose) was −5%, the “APPROX. NET LOG10 CHANGE IN TUMOR BURDEN AT END OF Rx” value (P388/CPA leukemia; IP 135.0 mg/kg/dose) was “+1.7” and the “neurotoxicity (dysmetria, ataxia, vertigo)” value (patients) was “principal dose limiting toxicity”.
